Each structure is given as a SMILES string. Calls of active or inactive are those of the source. For most assays here, no stated cut-off is given here; in the data, actives have a measured EC50 and inactives only a lower limit. Some results are limits rather than exact numbers.

In general, EC50 refers to the midpoint of the concentration-response curve. The term AC50 denotes the concentration giving half of the maximal activity seen.

The subject of one assay is Streptococcus. In words: GAS UMAA2166 growth inhibition – luminescence, BacTiterGlo, counter-screen for streptokinase expression inhibitor project, dose response (AID 1915).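 Further: potency for reduction of bacterial viability or growth.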 In kind it is functional, organism-based. A general note: A counterscreen serves to expose hits that act by an unwanted route or on another target.
The test system of assay [1] is Streptococcus sp. 'group A'. In words: Streptococcus pyogenes SK(-)GAS viability under kanamycin – luminescence, BacTiterGlo, confirmation, counter-screen for streptokinase expression inhibitor project, dose response (AID 1900). In kind it is functional, organism-based.
Assay [2] can be described thus: NIH3T3 cell viability loss – ATP luminescence, mouse fibroblasts, counter-screen, dose response (AID 2010).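 Further: cells exposed to compound for about 90 hours before reading.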 In kind it is functional, cell-based.
Assay [3] in a line: Trypanosoma cruzi growth suppression in host cells – NIH3T3 host cells, beta-gal luminescence, confirmation (AID 2044).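 Further: intracellular parasites grown in NIH/3T3 mouse fibroblasts as host cells; luminescent beta-galactosidase reporter signal from transgenic T. cruzi replicating inside host cells; inhibitors lower the luminescence signal.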 In kind it is functional, cell-based.
For the next assay, the target named is Cytochrome P450 2C9 (Homo sapiens, UniProt P11712).
In another assay the target is Cytochrome P450 3A4 (Homo sapiens, UniProt P08684).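 Further: CYP3A4 tested as one member of a cytochrome P450 panel screen.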
For another assay, the target named is T1, Cytochrome P450 1A2 (Homo sapiens, UniProt P05177).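 Further: PubChem cytochrome P450 panel assay, CYP1A2 panel member.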
T1 sequence (P05177 whole entry): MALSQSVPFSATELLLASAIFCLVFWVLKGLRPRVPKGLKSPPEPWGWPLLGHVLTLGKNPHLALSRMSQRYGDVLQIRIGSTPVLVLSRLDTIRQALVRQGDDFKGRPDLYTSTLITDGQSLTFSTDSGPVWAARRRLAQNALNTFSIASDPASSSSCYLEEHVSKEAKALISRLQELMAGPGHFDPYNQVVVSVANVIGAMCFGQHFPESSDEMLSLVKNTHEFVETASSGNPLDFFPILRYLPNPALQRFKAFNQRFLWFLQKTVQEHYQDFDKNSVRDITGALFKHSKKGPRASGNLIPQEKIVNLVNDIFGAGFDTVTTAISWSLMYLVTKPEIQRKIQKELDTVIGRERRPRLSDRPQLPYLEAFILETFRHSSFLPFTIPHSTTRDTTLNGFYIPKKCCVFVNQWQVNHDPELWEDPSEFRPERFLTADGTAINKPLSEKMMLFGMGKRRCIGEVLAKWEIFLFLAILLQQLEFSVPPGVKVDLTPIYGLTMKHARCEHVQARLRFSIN

The target in another assay is T2, Streptokinase A (Streptococcus pyogenes serotype M1, UniProt P10520).
T2 sequence (P10520 whole entry): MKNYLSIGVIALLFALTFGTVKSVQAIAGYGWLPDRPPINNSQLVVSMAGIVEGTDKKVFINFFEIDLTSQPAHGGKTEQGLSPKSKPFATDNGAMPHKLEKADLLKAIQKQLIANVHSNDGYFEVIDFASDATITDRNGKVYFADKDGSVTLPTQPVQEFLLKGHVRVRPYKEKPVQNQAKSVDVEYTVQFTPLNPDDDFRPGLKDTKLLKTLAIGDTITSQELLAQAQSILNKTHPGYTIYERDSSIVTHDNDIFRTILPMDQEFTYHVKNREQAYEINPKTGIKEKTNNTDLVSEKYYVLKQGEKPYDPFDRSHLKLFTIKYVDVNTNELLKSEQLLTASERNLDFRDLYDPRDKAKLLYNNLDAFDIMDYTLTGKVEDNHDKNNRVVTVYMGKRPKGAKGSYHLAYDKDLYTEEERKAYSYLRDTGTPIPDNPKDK
In words: viability-normalized secreted streptokinase activity reduction – plasminogen activation absorbance, OD405, dose response (AID 1914).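 Further: secreted streptokinase activity via plasminogen activation per viability signal from cell pellet.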 In kind it is functional, Streptococcus pyogenes M1 GAS.

Chain of Cytochrome P450 2C9 (P11712 whole entry): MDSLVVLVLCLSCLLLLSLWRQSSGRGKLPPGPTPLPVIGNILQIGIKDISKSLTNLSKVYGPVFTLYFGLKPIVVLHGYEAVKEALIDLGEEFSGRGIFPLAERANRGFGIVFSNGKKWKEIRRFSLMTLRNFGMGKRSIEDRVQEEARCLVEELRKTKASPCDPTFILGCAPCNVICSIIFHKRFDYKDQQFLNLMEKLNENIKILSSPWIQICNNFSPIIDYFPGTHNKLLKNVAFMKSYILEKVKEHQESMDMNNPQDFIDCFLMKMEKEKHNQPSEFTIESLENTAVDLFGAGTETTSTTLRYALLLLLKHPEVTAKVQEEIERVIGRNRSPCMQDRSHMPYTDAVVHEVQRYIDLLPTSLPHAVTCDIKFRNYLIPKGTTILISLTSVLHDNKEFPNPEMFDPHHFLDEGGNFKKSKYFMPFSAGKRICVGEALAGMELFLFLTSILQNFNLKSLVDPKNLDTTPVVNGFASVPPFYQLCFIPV
Chain of Cytochrome P450 3A4 (P08684 whole entry): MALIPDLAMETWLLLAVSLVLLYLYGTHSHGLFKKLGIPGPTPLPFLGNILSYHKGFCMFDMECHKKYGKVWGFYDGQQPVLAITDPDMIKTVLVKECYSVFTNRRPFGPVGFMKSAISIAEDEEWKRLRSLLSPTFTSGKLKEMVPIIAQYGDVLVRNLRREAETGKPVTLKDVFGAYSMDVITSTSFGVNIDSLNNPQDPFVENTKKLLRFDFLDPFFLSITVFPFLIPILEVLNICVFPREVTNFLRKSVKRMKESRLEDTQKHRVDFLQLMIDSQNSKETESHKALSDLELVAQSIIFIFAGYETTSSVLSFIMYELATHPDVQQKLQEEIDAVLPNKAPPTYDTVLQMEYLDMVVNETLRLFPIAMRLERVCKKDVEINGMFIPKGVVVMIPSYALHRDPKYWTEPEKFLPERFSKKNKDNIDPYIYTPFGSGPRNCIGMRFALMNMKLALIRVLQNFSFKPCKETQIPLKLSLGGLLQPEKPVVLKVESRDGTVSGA

In the case of `COc1ccc(-c2cc3ncnc(O)c3s2)cc1`, the EC50 was 17.8 µM (active) in the assay with Streptococcus and 3.63 µM (active) in assay [1].
For `COc1ccc(CC(=O)Nc2nc(-c3ccncc3)cs2)cc1`, the EC50 in assay [2] was > 60 µM (not active); in assay [3], 2.74 µM (active).
As to `COc1ccc(OC)c(NC(=O)Cn2cccc2)c1`, the AC50 at Cytochrome P450 2C9 is 31.6 µM (inconclusive); at Cytochrome P450 3A4, 15.8 µM (inconclusive).
For `Cc1cc(C)cc(Nc2c([N+](=O)[O-])nn(-c3ccc4c(c3)OCCO4)[n+]2[O-])c1`, the EC50 was > 60 µM (not active) in assay [2] and 0.16 µM (active) in assay [3].
On to `CC(=O)N1CCC[C@@]2(CCN(c3ccccc3)C2)C1`, for which the AC50 at Cytochrome P450 3A4 was 25.1 µM (inconclusive).
Still for that read-out and setting: with `Cc1cccc(NC(=O)Cn2cccc2)c1` the figure was 22.4 µM (inconclusive).
With `COc1ncc2nc(-c3cc(F)cc(F)c3)c(=O)n(-c3ccccc3)c2n1`, the AC50 at Cytochrome P450 1A2 was 1.26 µM (inconclusive).
Regarding `c1ccc2c(NC3C4CC5CC(C4)CC3C5)nc(N3CCOCC3)nc2c1` (stereo not given), the EC50 in assay [2] was > 30 µM (not active); in assay [3], 1.39 µM (active).
With `C/C(=C\c1ccc(Cl)cc1)C(C)(C)C(=O)O`, at Cytochrome P450 2C9, the AC50 was 3.16 µM (inconclusive).
`O=[N+]([O-])c1ccc(S(=O)(=O)Nc2ccc(-c3ccc(N4CCCC4)nn3)cc2)cc1`: the EC50 is > 60 µM (not active) in assay [2] and 0.159 µM (active) in assay [3].
Turning to `Cc1ccc(CN2CC34C=CC(O3)C(C(=O)NCc3ccco3)C4C2=O)cc1` (stereo not given), the AC50 at Cytochrome P450 1A2 is 20 µM (inconclusive).
Take `C/C(N)=C(/C#N)C(=O)CSc1nc(-c2ccccc2)c(-c2ccccc2)o1`: the EC50 in assay [2] was > 60 µM (not active); in assay [3] it was 1.43 µM (active).
Regarding `OC(COc1ccc(OCc2ccccc2)cc1)CN1CCCCC1` (stereo not given), the values for the EC50 in assay [2] and in assay [3] were > 60 µM (not active) and 21.4 µM (active), respectively.
Consider `CCOC(=O)c1cc2c(ccn2C)n1CC(=O)N1CCCC(C)C1` (stereo not given), for which the AC50 on Cytochrome P450 1A2 is 20 µM (inconclusive).
As to `Cc1ccc2c(c1)N(CCC(=O)NCc1ccc3c(c1)OCO3)C(=O)CO2`, the AC50 at Cytochrome P450 2C9 is 0.00562 µM (inconclusive).
The same measure, in the same setting: with `COC(=O)C/C=C\[C@@H](C)[C@@H](/C=N\OCC[C@H]1C=C[C@H](OC(C)=O)[C@@H](COC(C)=O)O1)NS(=O)(=O)c1ccc(C)cc1` the figure was 5.01 µM (inconclusive).
On the same count and under the same terms, with `O=C(NNC(=O)c1ccccc1)C(=O)N1CCCCC1` the figure was 0.00562 µM (inconclusive).
In the case of `O=c1c(-c2cc(F)cc(F)c2)nc2cnc(N3CCOCC3)nc2n1C1CC1`, the AC50 at Cytochrome P450 1A2 was 1 µM (inconclusive).
In the case of `COc1ccc(NC(=O)N2CC[C@@]3(CCCN(C(=O)c4csnn4)C3)C2)cc1`, at Cytochrome P450 3A4, the AC50 is 31.6 µM (inconclusive).
Same read-out and setting: the figure for `CCOC(=O)c1nn(-c2ccccc2)c(-c2ccccc2)c1C(=O)c1ccccc1` is 15.8 µM (inconclusive).
On to `CC(C)c1ccc2oc(-c3cc(N)ccc3O)nc2c1`, for which the EC50 is 10.8 µM (active) in assay [2] and 2.88 µM (active) in assay [3].
Regarding `Cc1ccc(S(=O)(=O)Nc2ccccc2C(=O)c2ccc(C)c(C)c2)cc1`, the AC50 at Cytochrome P450 1A2 was 0.631 µM (inconclusive).
`CCOc1ccc(C(F)(F)F)cc1NC(C)=O`: the AC50 on Cytochrome P450 2C9 was 31.6 µM (inconclusive).
For the compound `CCOc1ccc(CN2CCN(Cc3cnc(-c4ccccc4)s3)CC2CCO)cc1` (stereo not given), the EC50 is > 60 µM (not active) in assay [2] and 0.201 µM (active) in assay [3].
In the case of `Cc1cc(C)n2nc(-c3ccsc3-n3c(C)ccc3C)cc2n1`, the figures for the EC50 in assay [2] and in assay [3] were > 60 µM (not active) and 2.77 µM (active), respectively.
As for `Cc1nn(Cc2cccc(Oc3ccccc3)c2)c(C)c1NC(=O)NC12CC3CC(CC(C3)C1)C2`, the concentration giving a half-maximal response (EC50) in assay [2] is > 60 µM (not active); in assay [3], 1.29 µM (active).
Regarding `CSc1nsc(SC)c1NC(=O)Nc1ccccn1`, the AC50 at Cytochrome P450 2C9 is 22.4 µM (inconclusive).
As to `Cc1ccccc1OCC(=O)N/N=C1\CCOc2c(C)cccc21`, the AC50 at Cytochrome P450 3A4 is 3.16 µM (inconclusive).
With `COc1cc(/C=N/N=c2\[nH]c3ccccc3s2)cc([N+](=O)[O-])c1O`, on Streptokinase A, the EC50 is given as > 150 µM (not active).
`CN(C)C(=O)c1ccc(-c2cc(N(C)Cc3ccco3)ncn2)cc1`: at Cytochrome P450 1A2, the AC50 is 25.1 µM (inconclusive).
As for `CCCCNc1c(-c2ccc(SC3CCCCC3)c(OC)c2)nc2ccc(Cl)cn12`, the concentration for a half-maximal effect (EC50) in assay [2] is > 60 µM (not active); in assay [3], 1.43 µM (active).
On to `Cc1ccc(NC(=S)N(CCCN2CCOCC2)Cc2cccnc2)cc1C`, for which the values for the EC50 in assay [2] and in assay [3] were 10.9 µM (active) and 1.19 µM (active), respectively.
The matching figures for `CC(=O)N(CCCN(C)C)CCC(C)CCC=C(C)C` (stereo not given): > 60 µM (not active) and 0.324 µM (active).
On to `COC(=O)C[C@@H]1O[C@H]1[C@H](C)[C@@H](OC)C(C)C`, for which the AC50 at Cytochrome P450 2C9 was 3.16 µM (inconclusive).
For `COc1ccc(-c2nc3cnc(N4CCN(C)CC4)nc3n(-c3ccc(OC)cc3)c2=O)cc1`, the values for the AC50 on Cytochrome P450 2C9 and on Cytochrome P450 1A2 were 39.8 µM (inconclusive) and 15.8 µM (inconclusive), respectively.
Regarding `Cc1ccc(S(=O)(=O)N[C@H]2COC(=O)[C@H](C)COC(=O)[C@H](C)NC(=O)C/C=C\[C@H]2C)cc1`, the AC50 on Cytochrome P450 3A4 is 3.98 µM (inconclusive).
Take `O=C(c1ccncc1)N1CCC2(CC1)CCN(c1ncccn1)CC2`: the AC50 on Cytochrome P450 1A2 was 20 µM (inconclusive).
On to `COc1ccc(-c2cc3nc[nH]c(=O)c3s2)cc1`, for which, at Streptokinase A, the EC50 is > 150 µM (not active).
In the case of `N#CCCn1c(=O)c(-c2cc(F)cc(F)c2)nc2cnc(N3CCOCC3)nc21`, the AC50 at Cytochrome P450 1A2 was 3.16 µM (inconclusive); at Cytochrome P450 3A4, 20 µM (inconclusive).
In the case of `Cc1nc2cnc(N(C)C)nc2n(C2CC2)c1=O`, the AC50 at Cytochrome P450 2C9 is 15.8 µM (inconclusive).
In the case of `C/C(Cn1cnc([N+](=O)[O-])n1)=N\NC(=O)c1ccccc1O`, the EC50 is > 60 µM (not active) in assay [2] and 1.73 µM (active) in assay [3].
In the case of `COc1ccc(O[C@H]2C=C[C@@H](c3ccccc3)O[C@@H]2CON=C(C)C)cc1`, the AC50 on Cytochrome P450 3A4 was 3.98 µM (inconclusive).
Same read-out and setting: the figure for `CC(=O)OC[C@H]1O[C@@H](O/N=C(\C)CCN2CCc3nc(-c4ccccc4)c(-c4ccccc4)cc3C2)[C@H](OC(C)=O)[C@@H](OC(C)=O)[C@H]1OC(C)=O` is 5.01 µM (inconclusive).
Consider `Cc1ccc(Cn2nnc3c(=O)[nH]c(C4CCN(S(=O)(=O)c5cc(C)ccc5C)CC4)nc32)cc1`, for which the EC50 on Streptokinase A was 21.4 µM (active).
With `COc1ccc(/C=C/C(=O)Nc2cc(C)nn2-c2nc3ccccc3[nH]2)cc1`, the EC50 in assay [2] is 9.28 µM (active); in assay [3] it was 1.71 µM (active).
As to `O=C(Nc1nnc(C2=COCCO2)o1)c1ccc([N+](=O)[O-])s1`, the EC50 with Streptococcus is > 150 µM (not active); in assay [1] it was 18.1 µM (active); at Streptokinase A, > 150 µM (not active).
In the case of `CN(c1ccc(C(=O)NC2CC3CCC2C3)cc1)S(C)(=O)=O` (stereo not given), at Cytochrome P450 3A4, the AC50 is 15.8 µM (inconclusive).
For the compound `Cc1ccc(Cn2nnc3c(O)nc(C4CCN(S(=O)(=O)c5cc(C)ccc5C)CC4)nc32)cc1`, the EC50 with Streptococcus is 96 µM (active); in assay [1], 9.94 µM (active).
`COCCCNCCCOc1ccc(C(C)(C)c2ccccc2)cc1`: the figures for the EC50 in assay [2] and in assay [3] were > 60 µM (inconclusive) and 0.567 µM (active), respectively.
For `O=C(Nc1ccccc1)c1ccccc1CC[N+](=O)[O-]`, at Cytochrome P450 3A4, the AC50 was 7.94 µM (inconclusive).
In the case of `COc1cc(/C=N/Nc2nc3ccccc3s2)cc([N+](=O)[O-])c1O`, the EC50 is > 150 µM (not active) in the assay with Streptococcus and 9.74 µM (active) in assay [1].
Turning to `C[C@@H](C(=O)NCCF)[C@H]1C[C@]1(C)[C@H](NC(=O)OCc1ccccc1)c1ccccc1`, the concentration at half-maximal activity (AC50) is 25.1 µM (inconclusive) on Cytochrome P450 2C9 and 15.8 µM (inconclusive) on Cytochrome P450 1A2.
With `O=c1ccn([C@@H]2O[C@@H](COP(=O)(O)OP(=O)(O)O)[C@H](O)[C@@H]2O)c(=O)[nH]1`, the AC50 on Cytochrome P450 3A4 was 0.794 µM (inconclusive).
On to `CCc1ccc(NC(=O)CSc2nc3cc(C(=O)OC)ccc3c(=O)n2Cc2ccco2)cc1`, for which the results for the AC50 at Cytochrome P450 2C9 and on Cytochrome P450 3A4 were 28.2 µM (inconclusive) and 3.98 µM (inconclusive), respectively.
